According to PMC11277489, “Novel Piperazine Derivatives of Vindoline as Anticancer Agents” (International Journal of Molecular Sciences, 2024):
Like-named read-outs stand apart in the source and are kept apart here.

Legend:
KM12 = assay: NCI60 one-dose screen (10 μM), Colon Cancer; type: cell-based, human; settings: Homo sapiens
U251 = assay: NCI60 one-dose screen (10 μM), CNS Cancer; type: cell-based; settings: Homo sapiens
SK-MEL-2 = assay: NCI60 one-dose screen (10 μM), Melanoma; type: cell-based; settings: Homo sapiens
SNB-75 = assay: NCI60 one-dose screen (10 μM), CNS Cancer; type: cell-based, human; settings: Homo sapiens
HL-60(TB) = assay: NCI60 one-dose screen (10 μM), Leukemia; type: cell-based; settings: Homo sapiens
COLO 205 = assay: NCI60 one-dose screen (10 μM), Colon Cancer; type: cell-based, human; settings: for activity at 10 µM: Homo sapiens
HS 578T = assay: NCI60 one-dose screen (10 μM), Breast Cancer; type: cell-based; settings: Homo sapiens, read-out: Growth percent rate
RXF 393 = assay: NCI60 one-dose screen (10 μM), Renal Cancer; type: cell-based, human; settings: Homo sapiens
IGROV1 = assay: NCI60 one-dose screen (10 μM), Ovarian Cancer; type: cell-based; settings: Homo sapiens
NCI-H460 = assay: NCI60 one-dose screen (10 μM), Non-small Cell Lung Cancer; type: cell-based; settings: Homo sapiens
HCT-116 = assay: NCI60 one-dose screen (10 μM), Colon Cancer; type: cell-based; settings: Homo sapiens
SN12C = assay: NCI60 one-dose screen (10 μM), Renal Cancer; type: cell-based; settings: Homo sapiens, read-out: Growth percent rate
UACC-257 = assay: NCI60 one-dose screen (10 μM), Melanoma; type: cell-based; settings: Homo sapiens
SF-268 = assay: NCI60 one-dose screen (10 μM), CNS Cancer; type: cell-based; settings: Homo sapiens
[1] = system: 60 human tumor cell lines (NCI60); assay: NCI60 one-dose screen (10 μM), whole panel; type: cell-based; settings: for antiproliferative effect (in words): 10 μM one-dose, NCI60; for activity at 10 µM: read-out: Growth percent rate, Mean
HOP-62 = assay: NCI60 one-dose screen (10 μM), Non-small Cell Lung Cancer; type: cell-based; settings: Homo sapiens
CCRF-CEM = assay: NCI60 one-dose screen (10 μM), Leukemia; type: cell-based; settings: Homo sapiens, read-out: Growth percent rate
OVCAR-3 = assay: NCI60 one-dose screen (10 μM), Ovarian Cancer; type: cell-based; settings: Homo sapiens
EKVX = assay: NCI60 one-dose screen (10 μM), Non-small Cell Lung Cancer; type: cell-based; settings: Homo sapiens, read-out: Growth percent rate
K-562 = assay: NCI60 one-dose screen (10 μM), Leukemia; type: cell-based; settings: Homo sapiens
SK-MEL-28 = assay: NCI60 one-dose screen (10 μM), Melanoma; type: cell-based; settings: Homo sapiens
SF-539 = assay: NCI60 one-dose screen (10 μM), CNS Cancer; type: cell-based, human; settings: Homo sapiens
786–0 = assay: NCI60 one-dose screen (10 μM), Renal Cancer; type: cell-based; settings: Homo sapiens
TK-10 = assay: NCI60 one-dose screen (10 μM), Renal Cancer; type: cell-based; settings: Homo sapiens
MCF7 = assay: NCI60 one-dose screen (10 μM), Breast Cancer; type: cell-based; settings: Homo sapiens
ACHN = assay: NCI60 one-dose screen (10 μM), Renal Cancer; type: cell-based; settings: Homo sapiens, read-out: Growth percent rate
CAKI-1 = assay: NCI60 one-dose screen (10 μM), Renal Cancer; type: cell-based; settings: Homo sapiens
A498 = assay: NCI60 one-dose screen (10 μM), Renal Cancer; type: cell-based; settings: Homo sapiens
OVCAR-8 = assay: NCI60 one-dose screen (10 μM), Ovarian Cancer; type: cell-based; settings: Homo sapiens
HCT-15 = assay: NCI60 one-dose screen (10 μM), Colon Cancer; type: cell-based; settings: Homo sapiens
MOLT-4 = assay: NCI60 one-dose screen (10 μM), Leukemia; type: cell-based, human; settings: Homo sapiens
RPMI-8226 = assay: NCI60 one-dose screen (10 μM), Leukemia; type: cell-based; settings: Homo sapiens
A549/ATCC = assay: NCI60 one-dose screen (10 μM), Non-small Cell Lung Cancer; type: cell-based; settings: Homo sapiens
LOX IMVI = assay: NCI60 one-dose screen (10 μM), Melanoma; type: cell-based, human; settings: Homo sapiens, LOX IMVI, read-out: Growth percent rate
MDA-MB-435 = assay: NCI60 one-dose screen (10 μM), Melanoma; type: cell-based; settings: Homo sapiens
NCI-H23 = assay: NCI60 one-dose screen (10 μM), Non-small Cell Lung Cancer; type: cell-based; settings: Homo sapiens
SF-295 = assay: NCI60 one-dose screen (10 μM), CNS Cancer; type: cell-based; settings: Homo sapiens
MALME-3M = assay: NCI60 one-dose screen (10 μM), Melanoma; type: cell-based; settings: Homo sapiens, read-out: Growth percent rate
NCI-H522 = assay: NCI60 one-dose screen (10 μM), Non-small Cell Lung Cancer; type: cell-based; settings: Homo sapiens
NCI-H322M = assay: as above; type: cell-based; settings: Homo sapiens, read-out: Growth percent rate
SW-620 = assay: NCI60 one-dose screen (10 μM), Colon Cancer; type: cell-based; settings: Homo sapiens
OVCAR-4 = assay: NCI60 one-dose screen (10 μM), Ovarian Cancer; type: cell-based; settings: Homo sapiens
[2] = 10 μM, Non-small Cell Lung Cancer

## CCC12C=CCN3CC[C@@]4(c5ccc(OC)cc5N(C)[C@H]4[C@@](O)(C(=O)OC)[C@@H]1OC(C)=O)[C@@H]32 (stereo partly drawn) [Compound 1, vindoline]
KM12; KM12, read-out: Growth percent rate
  activity at 10 µM: 108%
U251; U-251, read-out: Growth percent rate
  activity at 10 µM: 95.9%
SK-MEL-2; SK-MEL-2, read-out: Growth percent rate
  activity at 10 µM: 106%
SNB-75; SNB-75, read-out: Growth percent rate
  activity at 10 µM: 119%
HL-60(TB); HL-60, read-out: Growth percent rate
  activity at 10 µM: 96.7%
COLO 205; COLO 205, read-out: Growth percent rate
  activity at 10 µM: 111%
HS 578T; Hs-578T
  activity at 10 µM: 98%
RXF 393; RXF 393, read-out: Growth percent rate
  activity at 10 µM: 98%
IGROV1; IGROV-1, read-out: Growth percent rate
  activity at 10 µM: 145%
NCI-H460; NCI-H460, read-out: Growth percent rate
  activity at 10 µM: 120%
HCT-116; HCT-116, read-out: Growth percent rate
  activity at 10 µM: 116%
SN12C
  activity at 10 µM: 100%
UACC-257; UACC-257, read-out: Growth percent rate
  activity at 10 µM: 95.8%
SF-268; SF-268, read-out: Growth percent rate
  activity at 10 µM: 122%
[1]
  antiproliferative effect (in words): a notable antiproliferative effect was not shown
[1]; listed as vindoline
  antiproliferative effect (in words): does not show any anticancer effect
[1]; Homo sapiens
  activity at 10 µM: 107%
HOP-62; HOP-62, read-out: Growth percent rate
  activity at 10 µM: 99%
CCRF-CEM
  activity at 10 µM: 102%
OVCAR-3; OVCAR-3, read-out: Growth percent rate
  activity at 10 µM: 127%
EKVX
  activity at 10 µM: 92%
K-562; K562, read-out: Growth percent rate
  activity at 10 µM: 89.3%
SK-MEL-28; SK-MEL-28, read-out: Growth percent rate
  activity at 10 µM: 134%
SF-539; SF-539, read-out: Growth percent rate
  activity at 10 µM: 116%
786–0; 786-0, read-out: Growth percent rate
  activity at 10 µM: 97.5%
TK-10; TK-10, read-out: Growth percent rate
  activity at 10 µM: 97.5%
MCF7; MCF7, read-out: Growth percent rate
  activity at 10 µM: 89.9%
ACHN
  activity at 10 µM: 105%
CAKI-1; CAKI-1, read-out: Growth percent rate
  activity at 10 µM: 105%
A498; A498, read-out: Growth percent rate
  activity at 10 µM: 137%
OVCAR-8; OVCAR-8, read-out: Growth percent rate
  activity at 10 µM: 103%
HCT-15; HCT-15, read-out: Growth percent rate
  activity at 10 µM: 103%
MOLT-4; MOLT-4, read-out: Growth percent rate
  activity at 10 µM: 92.7%
RPMI-8226; RPMI-8226, read-out: Growth percent rate
  activity at 10 µM: 105%
A549/ATCC; A549, read-out: Growth percent rate
  activity at 10 µM: 101%
LOX IMVI
  activity at 10 µM: 95.3%
MDA-MB-435; MDA-MB-435, read-out: Growth percent rate
  activity at 10 µM: 104%
NCI-H23; NCI-H23, read-out: Growth percent rate
  activity at 10 µM: 95.3%
SF-295; SF-295, read-out: Growth percent rate
  activity at 10 µM: 103%
MALME-3M; Malme-3M
  activity at 10 µM: 147%
NCI-H522; NCI-H522, read-out: Growth percent rate
  activity at 10 µM: 99.7%
NCI-H322M
  activity at 10 µM: 109%
SW-620; SW-620, read-out: Growth percent rate
  activity at 10 µM: 121%
OVCAR-4; OVCAR-4, read-out: Growth percent rate
  activity at 10 µM: 136%

## CC[C@]12C=CCN3CC[C@@]4(c5ccc(OC)cc5N(C)[C@H]4[C@@](O)(C(=O)OC)[C@@H]1OC(=O)CCC(=O)N1CCN(c4ccc(C(F)(F)F)cc4)CC1)[C@@H]32 [Compound 28]
KM12; 10 μM, KM12, Colon Cancer, read-out: Growth percent rate
  activity at 10 µM: 3.83%
U251; U-251, 10 μM, U251, CNS Cancer, read-out: Growth percent rate
  activity at 10 µM: 12.4%
SK-MEL-2; 10 μM, SK-MEL-2, Melanoma, read-out: Growth percent rate
  activity at 10 µM: -84.7%
SNB-75; 10 μM, SNB-75, CNS Cancer, read-out: Growth percent rate
  activity at 10 µM: 26.2%
HL-60(TB); 10 μM, HL-60(TB), Leukemia, read-out: Growth percent rate
  activity at 10 µM: 4.32%
COLO 205; 10 μM one-dose, COLO-205 colon cancer, negative = lethality
  growth percent rate: −90.33%
COLO 205; 10 μM, COLO 205, Colon Cancer, read-out: Growth percent rate
  activity at 10 µM: -90.3%
HS 578T; 10 μM, HS 578T, Breast Cancer
  activity at 10 µM: 20.1%
RXF 393; 10 μM, RXF 393, Renal Cancer, read-out: Growth percent rate
  activity at 10 µM: -12.9%
IGROV1; IGROV-1, 10 μM, IGROV1, Ovarian Cancer, read-out: Growth percent rate
  activity at 10 µM: -42.3%
NCI-H460; 10 μM, NCI-H460, Non-small Cell Lung Cancer, read-out: Growth percent rate
  activity at 10 µM: 1.83%
HCT-116; 10 μM, HCT-116, Colon Cancer, read-out: Growth percent rate
  activity at 10 µM: 29.4%
SN12C; 10 μM, Renal Cancer
  activity at 10 µM: 9.74%
UACC-257; 10 μM, UACC-257, Melanoma, read-out: Growth percent rate
  activity at 10 µM: 19.5%
SF-268; 10 μM, SF-268, CNS Cancer, read-out: Growth percent rate
  activity at 10 µM: 13.1%
[1]; 10 μM, mean over 60 human cancer cell lines
  activity at 10 µM: -3.07%
HOP-62; 10 μM, HOP-62, Non-small Cell Lung Cancer, read-out: Growth percent rate
  activity at 10 µM: 30.4%
CCRF-CEM; 10 μM, Leukemia
  activity at 10 µM: 4.4%
OVCAR-3; 10 μM, OVCAR-3, Ovarian Cancer, read-out: Growth percent rate
  activity at 10 µM: -2.22%
EKVX; [2]
  activity at 10 µM: 20.9%
K-562; K562, 10 μM, K-562, Leukemia, read-out: Growth percent rate
  activity at 10 µM: 16.9%
SK-MEL-28; 10 μM, SK-MEL-28, Melanoma, read-out: Growth percent rate
  activity at 10 µM: 15%
SF-539; 10 μM, SF-539, CNS Cancer, read-out: Growth percent rate
  activity at 10 µM: 8.28%
786–0; 10 μM, 786-0, Renal Cancer, read-out: Growth percent rate
  activity at 10 µM: 20.7%
TK-10; 10 μM, TK-10, Renal Cancer, read-out: Growth percent rate
  activity at 10 µM: -5.03%
MCF7; 10 μM, MCF7, Breast Cancer, read-out: Growth percent rate
  activity at 10 µM: 3.97%
ACHN; 10 μM, Renal Cancer
  activity at 10 µM: -3.87%
CAKI-1; 10 μM, CAKI-1, Renal Cancer, read-out: Growth percent rate
  activity at 10 µM: -10.2%
A498; 10 μM, A498, Renal Cancer, read-out: Growth percent rate
  activity at 10 µM: 21.6%
OVCAR-8; 10 μM, OVCAR-8, Ovarian Cancer, read-out: Growth percent rate
  activity at 10 µM: 10.7%
HCT-15; 10 μM, HCT-15, Colon Cancer, read-out: Growth percent rate
  activity at 10 µM: 6.71%
MOLT-4; 10 μM, MOLT-4, Leukemia, read-out: Growth percent rate
  activity at 10 µM: 18.7%
RPMI-8226; 10 μM, RPMI-8226, Leukemia, read-out: Growth percent rate
  activity at 10 µM: 8.8%
A549/ATCC; 10 μM, A549/ATCC, Non-small Cell Lung Cancer, read-out: Growth percent rate
  activity at 10 µM: 13.6%
LOX IMVI; 10 μM, Melanoma
  activity at 10 µM: -75.8%
MDA-MB-435; 10 μM, MDA-MB-435, Melanoma, read-out: Growth percent rate
  activity at 10 µM: 5.7%
NCI-H23; 10 μM, NCI-H23, Non-small Cell Lung Cancer, read-out: Growth percent rate
  activity at 10 µM: 8.32%
SF-295; 10 μM, SF-295, CNS Cancer, read-out: Growth percent rate
  activity at 10 µM: 1.73%
MALME-3M; 10 μM, MALME-3M, Melanoma
  activity at 10 µM: 2.45%
NCI-H522; 10 μM, NCI-H522, Non-small Cell Lung Cancer, read-out: Growth percent rate
  activity at 10 µM: -9.16%
NCI-H322M; [2]
  activity at 10 µM: 43.7%
SW-620; 10 μM, SW-620, Colon Cancer, read-out: Growth percent rate
  activity at 10 µM: 20.7%
OVCAR-4; 10 μM, OVCAR-4, Ovarian Cancer, read-out: Growth percent rate
  activity at 10 µM: 6.5%
